Laboratory results published in patent US4567198A, “Ethanethioates and mercaptoamides and use thereof as analgesic and enkephalinase inhibitory compounds” (Roussel Uclaf, priority 1983, dated 1986).

molecular target: T1, Enkephalinase (Rattus norvegicus, UniProt P07861); assay: Inhibition of enkephalinase in rat striatum membrane fraction (hydrolysis of tritiated leucine-enkephaline); type: biochemical; conditions: striatum membrane fraction of rats; 20 nanomoles tritiated leucine-enkephaline, 1 mM puromycin, 25° C., 15 minutes, Tris pH 7.4; read-out: Enkephalinase inhibition CI50
T1 construct: from tissue; host or cells: rat striatum, membrane fraction (20,000 g pellet)
T1 sequence (P07861 1-750): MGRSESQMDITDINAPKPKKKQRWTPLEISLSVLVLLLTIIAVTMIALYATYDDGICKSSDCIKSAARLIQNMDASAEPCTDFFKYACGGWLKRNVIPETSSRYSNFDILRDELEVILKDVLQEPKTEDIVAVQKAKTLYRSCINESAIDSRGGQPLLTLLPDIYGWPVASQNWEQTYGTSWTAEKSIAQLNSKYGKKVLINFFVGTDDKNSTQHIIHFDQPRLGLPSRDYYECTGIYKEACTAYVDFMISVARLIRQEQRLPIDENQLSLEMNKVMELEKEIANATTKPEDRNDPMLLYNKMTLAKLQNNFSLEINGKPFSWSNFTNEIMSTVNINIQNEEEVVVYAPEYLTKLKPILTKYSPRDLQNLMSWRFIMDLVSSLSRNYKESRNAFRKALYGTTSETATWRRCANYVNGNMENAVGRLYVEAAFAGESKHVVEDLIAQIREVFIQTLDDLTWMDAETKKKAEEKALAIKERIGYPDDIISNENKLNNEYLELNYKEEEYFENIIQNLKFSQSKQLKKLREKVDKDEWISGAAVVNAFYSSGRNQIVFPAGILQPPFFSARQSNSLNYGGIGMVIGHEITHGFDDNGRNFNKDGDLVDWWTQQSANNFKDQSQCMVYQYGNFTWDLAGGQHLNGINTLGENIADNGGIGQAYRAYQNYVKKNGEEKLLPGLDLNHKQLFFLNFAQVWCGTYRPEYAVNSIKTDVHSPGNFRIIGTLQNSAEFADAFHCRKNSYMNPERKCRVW
Description: Enkephalinase activity was determined in a striatum membrane fraction of rats. The straitum was placed in ice and was homogenized in buffered 0.05M Tris with a pH of 7.4 (20 times the volume) and after a first centrifugation at 1000 g, the particular fraction obtained was subjected to two centrifugations for 10 minutes at 20,000 g. The culot was then suspended in buffered Tris and kept at 4° C. The amount of proteins was determined by the Comassie blue method.
After preincubation at 25° C. for 15 minutes, an aliquot of proteins was incubated at 25° C. for 15 minutes in the presence of 20 nanomoles of tritiated leucine-enkephaline (against the first amino acid) previously purified, of 1 mM of puromycin and the test product in buffered Tris. The hydrolysis reaction was stopped by addition of 0.2N hydrochloric acid and the icubate was subjected to a deproteinization by heating at 95° C. for 15 minutes. Under these conditions, the kinetic reaction was linear. The tritiated metabolites obtained by hydrolysis were separated from enkephaline by chromatography over a column of porapak Q and elution with buffered Tris whereby enkephaline was retained in the column and was released in the following ethanolic phase. The activity of the different products was expressed in 50% inhibiting concentration called CI50 in Table I.

| Compound | IC50 [µM] |
| --- | --- |
| CC(=O)SCC(=O)Nc1nccs1 [Ethanethioate of S-[2-(2-thiazolylamino)-2-oxo-ethyl]] | 130 |
| CC(=O)SCC(=O)Nc1ccc(Cl)cc1 [Ethanethioate of S-[2-(4-chlorophenylamino)-2-oxo-ethyl]] | 6 |
| O=C(CS)Nc1nccs1 [N--(2-thiazolyl)-2-mercapto-acetamide, N-(2-thiazolyl)-2-mercapto-acetamide] | 30 |
| O=C(CS)Nc1ccc(Cl)cc1 [N--(4-chlorophenyl)-2-mercapto-acetamide, N-(4-chlorophenyl)-2-mercapto-acetamide] | 5 |
| O=C(CS)Nc1ccccc1 [N--phenyl-2-mercapto-acetamide, N-phenyl-2-mercapto-acetamide] | 3 |
| O=C(CCS)Nc1ccccc1 [N--phenyl-3-mercapto-propanamide, N-phenyl-3-mercapto-propanamide] | 40 |
